Experimental data published in patent US12509460B2 (Skyhawk Therapeutics, Inc., priority 2019, dated 2025).
Like-named read-outs stand apart in the source and are kept apart here.

Assays:
[1] = system: MDR1-MDCK cell monolayers; details: dog, MDCK-MDR1, 120 min, 5 μM, pH 7.4
[2] = system: mHTT protein in GM04724 (CAG 70/20) Huntington's disease patient lymphoblast cells; test: mHTT protein assay, 2B7-MW1 assay via Mesoscale Discovery (MSD); assay type: cell-based, human
In short: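 Signal from the 2B7-MW1 antibody pair on MSD, rising with polyQ length and smaller HTT fragments, measured mHTT after 48 h compound exposure (0.6 nM–10 μM) in GM04724 cells. A parallel replicate plate gave CellTiter Glo viability.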

[3] = system: SMN protein in spinal muscular atrophy (SMA) patient fibroblasts (GM03813, Coriell); test: SMN protein assay, Mesoscale Discovery (MSD); assay type: cell-based, human; details: for EC50: read-out: SMN2 protein EC50
In short: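 Absolute SMN levels were quantified by MSD against an SMN protein standard curve (1 μg/ml to 19.5 pg/ml) run on each plate. Samples were lysates of GM03813 patient fibroblasts (7000 cells/well) treated 48 hours with compound doses from 2.5 μM down to 0.6 nM.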

[4] = system: MDR1 (P-gp); test: in vitro; details: dog, MDCK-MDR1, pH 7.4
[5] = system: MDR1; test: in vitro; details: dog, MDCK-MDR1, pH 7.4
[6] = GM04724 (CAG 70/20) Huntington's disease patient lymphoblasts
[7] = SMA patient fibroblasts (GM03813), 48 hours
[8] = GM04724 Huntington's disease patient lymphoblasts
[9] = SMA patient fibroblasts GM03813, 48 hours, MSD

Row | Structure (SMILES) | MDCK-MDR1: % Recov A-B [1] [%] | MDCK-MDR1: % Recov B-A [1] [%] | mHTT protein EC50 [2, 6] | SMN2 protein EC50 [3, 7] | Papp A→B at 120 min, 5 μM [4] [nm/s] | Papp B→A at 120 min, 5 μM [4] [nm/s] | efflux ratio at 120 min, 5 μM [5] | EC50 [2, 8] [µM] | SMN2 protein EC50 [3, 9] | mHTT protein EC50 [2, 8] | EC50 [3, 7] [µM] | EC50 [3, 9] [µM] | EC50 [2, 6] [µM]
1 | CN(c1ccc(-c2cc3ncn(CC(F)(F)F)c(=O)c3cc2O)nn1)[C@H]1C[C@@H]2CC[C@H]([C@H]1F)N2C (single isomer, unassigned) [Compound 108B] | 102 | 101 | E (501 ≤ E ≤ 10.000) | E (501 ≤ E ≤ 10.000) | 9.8 | 595 | 61 | – | – | – | – | – | –
2 | CCc1cn(-c2ccc(-c3ccc(N(C)[C@H]4C[C@@H]5CC(F)(F)[C@H](C4)N5)nn3)c(O)c2)nn1 (single isomer, unassigned) [Compound 64B] | 69 | 83 | – | – | 56.1 | 586 | 10 | 0.101 to 0.5 | E (501 ≤ E ≤ 10.000) | – | – | – | –
3 | CN1[C@@H]2CC[C@H]1[C@H](F)[C@H](N(c1ccc(-c3cc4oc(C(=O)N5CCC5)cc4cc3O)nn1)C1CC1)C2 (single isomer, unassigned) [Compound 92A] | 93 | 88 | – | – | 12.3 | 578 | 47 | – | E (501 ≤ E ≤ 10.000) | E (501 ≤ E ≤ 10.000) | – | – | –
4 | CN(c1ccc(-c2ccc(C(F)F)cc2O)nn1)[C@@H]1C[C@H]2CC[C@H](N2)[C@@H]1F (single isomer, unassigned) [Compound 120A] | 76 | 74 | E (501 ≤ E ≤ 10.000) | E (501 ≤ E ≤ 10.000) | 45.9 | 348 | 8 | – | – | – | – | – | –
5 | CN(c1ccc(-c2cc3c(=O)n(C)cnc3cc2O)nn1)[C@@H]1C[C@H]2CC[C@@H]([C@@H]1F)N2C [Compound 102A, 6-(6-(((1S,2S,3R,5R)-2-fluoro-8-methyl-8-azabicyclo[3.2.1]octan-3-yl)(methyl)amino)pyridazin-3-yl)-7-hydroxy-3-methylquinazolin-4(3H)-one] | 88 | 92 | E (501 ≤ E ≤ 10.000) | – | 14.3 | 581 | 41 | – | – | – | 0.101 to 0.5 | – | –
6 | CN(c1ccc(-c2cn3c(=O)ccnc3cc2O)nn1)[C@H]1C[C@@H]2CC[C@@H](N2)[C@H]1F (single isomer, unassigned) [Compound 82B] | 72 | 110 | – | – | < 2.1 | 32.8 | > 15 | – | – | E (501 ≤ E ≤ 10.000) | – | 0.101 to 0.5 | –
7 | CN(C)C(=O)c1cc(O)c(-c2ccc(N(C)[C@H]3C[C@@H]4CC[C@@H](N4)[C@H]3F)nn2)cc1F (single isomer, unassigned) [Compound 53B] | 100 | 112 | – | – | 2.7 | 418 | 153 | – | E (501 ≤ E ≤ 10.000) | E (501 ≤ E ≤ 10.000) | – | – | –
8 | CN(c1ccc(-c2ccccc2O)nn1)[C@H]1C[C@@H]2CC[C@@H](N2)[C@H]1F (single isomer, unassigned) [Compound 119B] | 93 | 95 | E (501 ≤ E ≤ 10.000) | E (501 ≤ E ≤ 10.000) | 61.3 | 582 | 9 | – | – | – | – | – | –
9 | CN(c1ccc(-c2cc3cnccc3cc2O)nn1)[C@@H]1C[C@H]2CC[C@@H]([C@@H]1F)N2C [Compound 93A, 7-(6-(((1S,2S,3R,5R)-2-fluoro-8-methyl-8-azabicyclo[3.2.1]octan-3-yl)(methyl)amino)pyridazin-3-yl)isoquinolin-6-ol] | 50 | 70 | – | – | 52.7 | 179 | 3 | – | – | E (501 ≤ E ≤ 10.000) | – | 0.101 to 0.5 | –
10 | CN(c1ccc(-c2cc3ncn(CC(F)(F)F)c(=O)c3cc2O)nn1)[C@H]1C[C@@H]2CCC[C@H]([C@H]1F)N2C (single isomer, unassigned) [Compound 109B] | 74 | 87 | E (501 ≤ E ≤ 10.000) | E (501 ≤ E ≤ 10.000) | 23.9 | 633 | 26 | – | – | – | – | – | –
11 | Cc1nc2cc(-c3ccc(N(C)[C@H]4C[C@@H]5CC[C@H]([C@H]4F)N5C)nn3)c(O)cc2c(=O)n1CC(F)(F)F (single isomer, unassigned) [Compound 130B] | 107 | 110 | E (501 ≤ E ≤ 10.000) | E (501 ≤ E ≤ 10.000) | 7.7 | 722 | 94 | – | – | – | – | – | –
12 | CN(c1ccc(-c2ccc(Oc3nccn3C)cc2O)nn1)[C@@H]1C[C@H]2CC[C@H](N2)[C@@H]1F (single isomer, unassigned) [Compound 123A] | 97 | 102 | E (501 ≤ E ≤ 10.000) | E (501 ≤ E ≤ 10.000) | 7.6 | 597 | 79 | – | – | – | – | – | –
13 | CN(c1ccc(-c2cnc(C#N)cc2O)nn1)[C@H]1C[C@@H]2CC[C@@H](N2)[C@H]1F (single isomer, unassigned) [Compound 71B] | 90 | 89 | – | – | 50.4 | 209 | 4 | – | E (501 ≤ E ≤ 10.000) | E (501 ≤ E ≤ 10.000) | – | – | –
14 | CN(c1ccc(-c2cc3ccn(C)c(=O)c3s2)nn1)[C@H]1C[C@@H]2CC[C@@H](N2)[C@H]1F (single isomer, unassigned) [Compound 67B] | 91 | 96 | – | – | 4.7 | 409 | 86 | – | E (501 ≤ E ≤ 10.000) | E (501 ≤ E ≤ 10.000) | – | – | –
15 | CN1[C@@H]2CC[C@H]1[C@H](F)[C@H](N(c1ccc(-c3cc4ncn(CC(F)(F)F)c(=O)c4cc3O)nn1)C1CC1)C2 (single isomer, unassigned) [Compound 111A] | 90 | 83 | E (501 ≤ E ≤ 10.000) | E (501 ≤ E ≤ 10.000) | 8.9 | 443 | 45 | – | – | – | – | – | –
16 | CN(c1ccc(-c2cc3cc[nH]c(=O)c3s2)nn1)[C@H]1C[C@@H]2CC[C@@H](N2)[C@H]1F (single isomer, unassigned) [Compound 66B] | 98 | 98 | – | – | 0.7 | 46.4 | 68 | – | E (501 ≤ E ≤ 10.000) | E (501 ≤ E ≤ 10.000) | – | – | –
17 | Cc1nc2cc(-c3ccc(N(C)[C@@H]4C[C@H]5CC[C@@H]([C@@H]4F)N5C)nn3)c(O)cc2c(=O)n1C [Compound 105A, 7-(6-(((1S,2S,3R,5R)-2-fluoro-8-methyl-8-azabicyclo[3.2.1]octan-3-yl)(methyl)amino)pyridazin-3-yl)-6-hydroxy-2,3-dimethylquinazolin-4(3H)-one] | 105 | 115 | – | – | 5.8 | 569 | 99 | – | – | – | 0.101 to 0.5 | – | 0.101 to 0.5
18 | CN(C)C(=O)c1cc2cc(O)c(-c3ccc(N(C)[C@@H]4C[C@H]5CC[C@@H]([C@@H]4F)N5C)nn3)cc2o1 (single isomer, unassigned) [Compound 106A] | 95 | 92 | E (501 ≤ E ≤ 10.000) | E (501 ≤ E ≤ 10.000) | 18.7 | 631 | 34 | – | – | – | – | – | –
19 | CN1[C@H]2CC[C@@H]1[C@@H](F)[C@@H](N(c1ccc(-c3cc4oc(C(=O)N5CCC5)cc4cc3O)nn1)C1CC1)C2 (single isomer, unassigned) [Compound 92B] | 94 | 105 | – | – | 11.6 | 523 | 45 | 0.101 to 0.5 | – | – | – | 0.101 to 0.5 | –
20 | CN(c1ccc(-c2ccc(C3CC3)cc2O)nn1)[C@H]1C[C@@H]2CC[C@@H](N2)[C@H]1F (single isomer, unassigned) [Compound 31B] | 43 | 74 | – | – | 70.8 | 270 | 4 | – | E (501 ≤ E ≤ 10.000) | E (501 ≤ E ≤ 10.000) | – | – | –
